Patent US7482328B2, “Antimicrobial polypeptide and utilization thereof” (Toagosei Co., Ltd., priority 2002, dated 2009)
Residues, ends and D or L forms follow the SMILES beside them. No end group written: not given here.

Columns and labels:
E. coli = type: cell-based
Description: (§1) Regarding the antimicrobial polypeptide of the present invention (samples 1 to 33) and the polypeptides of comparative samples 1 to 3, the antimicrobial activities (minimum inhibitory concentration: MIC) with respect to gram-negative bacteria (E. coli) and gram-positive bacteria (S. aureus) were determined by a liquid medium dilution technique using a 96-well microplate.
(§2) More specifically, liquid bouillon media (“NUTRIENT BROTH Dehydraged” manufactured by DIFCO) in a polypeptide concentration of 500, 250, 125, 62.5, 31.3, 15.6, 7.8, 3.9, 1.9, 1.0 and 0.5 μM were prepared, and filled in a 96-well microplate. On the other hand, bacteria suspension (about 2×10^6 cells/mL) that had been stationary cultured at 37° C. for 18 hours with LB Broth, Lennox (manufactured by DIFCO) were inoculated to each well of the 96-well microplate in an equal amount to that of the pharmaceutical solution (the above-described polypeptide-containing bouillon medium). After inoculation, culture was started in an incubator at 37° C., and it was examined based on the turbidity after 24 hours and 48 hours whether or not bacteria are present. The minimum of the polypeptide concentrations in which no increase in the turbidity caused by bacteria at the time of measurement was observed was defined as MIC in this example.
(§3) The unit of MIC in Table 2 is μM. […]

S. aureus = type: cell-based
Description: as §1, §2, §3

Compound	antimicrobial activity (MIC) E. coli after 24h (E. coli)	antimicrobial activity (MIC) E. coli after 48h (E. coli)	antimicrobial activity (MIC) S. aureus after 24h (S. aureus)	antimicrobial activity (MIC) S. aureus after 48h (S. aureus)
N=C(N)NCCC[C@H](NC(=O)[C@H](CCCNC(=N)N)NC(=O)[C@H](CCCCN)NC(=O)[C@@H](N)CCCNC(=N)N)C(=O)O [comparative sample 1, RKRR, reference compound] (H-RKRR-OH; N-terminus and C-terminus assumed)	>500 µM	>500 µM	>500 µM	>500 µM
CC(C)[C@H](NC(=O)[C@H](CCCCN)NC(=O)[C@H](CCCNC(=N)N)NC(=O)[C@H](CCCCN)NC(=O)[C@H](CCCCN)NC(=O)[C@H](CCCCN)NC(=O)[C@@H]1CCCN1)C(=O)O [sample 1, PKKKRKV]	62.5 µM	>500 µM	62.5 µM	125.0 µM
LALKLAGLDI [compound 3, LALKLAGLDI, reference compound]	>500 µM	>500 µM	>500 µM	>500 µM
LPPLERLTL [comparative sample 2, LPPLERLTL, reference compound]	>500 µM	>500 µM	>500 µM	>500 µM
LPPLERLTLPKKKRKV [sample 9, LPPLERLTLPKKKRKV]	31.3 µM	31.3 µM	3.9 µM	3.9 µM
LPPLERLTLRKKKRKV [sample 13, LPPLERLTLRKKKRKV]	15.6 µM	15.6 µM	3.9 µM	3.9 µM
PKKKRKVLPPLERLTL [sample 8, PKKKRKVLPPLERLTL]	31.3 µM	31.3 µM	3.9 µM	3.9 µM
PKKKRKVLPPLERLTLPKKKRKV [sample 11]	3.9 µM	3.9 µM	1.9 µM	1.9 µM
PKKKRKVPPRKKRTVV [sample 19, PKKKRKVPPRKKRTVV]	3.9 µM	3.9 µM	7.8 µM	7.8 µM
PKKKRRV [sample 26, PKKKRRV]	62.5 µM	500.0 µM	125.0 µM	125.0 µM

The remaining lines, values ahead:

antimicrobial activity (MIC) E. coli after 24h (E. coli)	antimicrobial activity (MIC) E. coli after 48h (E. coli)	antimicrobial activity (MIC) S. aureus after 24h (S. aureus)	antimicrobial activity (MIC) S. aureus after 48h (S. aureus)	Compound
500.0 µM	>500 µM	125.0 µM	125.0 µM	LKRKLQR [sample 27, LKRKLQR]
3.9 µM	3.9 µM	3.9 µM	3.9 µM	LKRKLQRLKRKLQR [sample 30, LKRKLQRLKRKLQR]
3.9 µM	3.9 µM	1.9 µM	1.9 µM	MRKKKRKVRKKKRKV [sample 33, MRKKKRKVRKKKRKV]
7.8 µM	7.8 µM	3.9 µM	7.8 µM	PKKKRKVALGKLALGKL [sample 31, PKKKRKVALGKLALGKL]
